Read-outs that look alike come from different tables or passages of the source. Blank lines part the entries; values can stand above or below the molecule they belong to.
Key:
Test in all cases: biochemical
Set-up in all cases: DiscoveRx KINOMEscan active site-directed competition binding; percent of control kinase bound to immobilised ligand
MAST1 = MAST1 (Homo sapiens, UniProt Q9Y2H9)
ALK(C1156Y) = ALK(C1156Y) (Homo sapiens, UniProt Q9UM73, C1156Y)
TBK1 = target: T1, TBK1 (Homo sapiens, UniProt Q9UHD2)
T1 sequence (Q9UHD2 1-729): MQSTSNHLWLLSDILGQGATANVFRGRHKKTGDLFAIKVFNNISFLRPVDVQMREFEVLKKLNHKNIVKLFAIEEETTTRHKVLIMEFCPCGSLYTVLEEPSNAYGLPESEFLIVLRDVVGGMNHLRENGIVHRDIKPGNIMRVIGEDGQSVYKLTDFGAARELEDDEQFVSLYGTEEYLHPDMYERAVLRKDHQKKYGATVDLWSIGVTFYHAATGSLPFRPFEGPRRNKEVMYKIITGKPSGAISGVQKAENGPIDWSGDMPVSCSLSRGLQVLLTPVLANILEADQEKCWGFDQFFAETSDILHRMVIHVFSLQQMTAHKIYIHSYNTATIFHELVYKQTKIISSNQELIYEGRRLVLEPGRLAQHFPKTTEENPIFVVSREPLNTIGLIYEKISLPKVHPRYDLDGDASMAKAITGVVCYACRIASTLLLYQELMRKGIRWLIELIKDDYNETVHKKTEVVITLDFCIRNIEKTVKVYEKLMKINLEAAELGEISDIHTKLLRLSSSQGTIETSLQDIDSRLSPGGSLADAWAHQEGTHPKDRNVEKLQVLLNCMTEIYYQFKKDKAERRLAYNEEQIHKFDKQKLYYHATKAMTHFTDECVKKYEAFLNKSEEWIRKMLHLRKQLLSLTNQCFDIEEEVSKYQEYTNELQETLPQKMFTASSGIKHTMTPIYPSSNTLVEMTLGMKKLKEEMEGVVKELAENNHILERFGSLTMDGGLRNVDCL

CLK3 = CLK3 (Homo sapiens, UniProt P49761)
Sequence of CLK3 (P49761 whole entry): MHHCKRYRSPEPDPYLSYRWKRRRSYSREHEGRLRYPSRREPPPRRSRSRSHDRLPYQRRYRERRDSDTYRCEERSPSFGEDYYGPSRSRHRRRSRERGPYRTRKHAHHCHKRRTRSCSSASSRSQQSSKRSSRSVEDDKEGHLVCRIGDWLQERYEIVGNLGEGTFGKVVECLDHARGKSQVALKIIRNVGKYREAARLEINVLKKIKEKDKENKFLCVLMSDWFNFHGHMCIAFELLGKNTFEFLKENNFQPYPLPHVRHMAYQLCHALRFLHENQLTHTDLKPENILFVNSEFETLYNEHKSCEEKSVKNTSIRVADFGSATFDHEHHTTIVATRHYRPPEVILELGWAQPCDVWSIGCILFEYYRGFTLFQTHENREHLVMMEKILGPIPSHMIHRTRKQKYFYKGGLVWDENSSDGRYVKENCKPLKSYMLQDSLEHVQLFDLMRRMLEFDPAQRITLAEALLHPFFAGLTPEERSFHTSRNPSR

TNK2 = TNK2 (Homo sapiens, UniProt Q07912)
ROCK1 = ROCK1 (Homo sapiens, UniProt Q13464)
Sequence of ROCK1 (Q13464 whole entry): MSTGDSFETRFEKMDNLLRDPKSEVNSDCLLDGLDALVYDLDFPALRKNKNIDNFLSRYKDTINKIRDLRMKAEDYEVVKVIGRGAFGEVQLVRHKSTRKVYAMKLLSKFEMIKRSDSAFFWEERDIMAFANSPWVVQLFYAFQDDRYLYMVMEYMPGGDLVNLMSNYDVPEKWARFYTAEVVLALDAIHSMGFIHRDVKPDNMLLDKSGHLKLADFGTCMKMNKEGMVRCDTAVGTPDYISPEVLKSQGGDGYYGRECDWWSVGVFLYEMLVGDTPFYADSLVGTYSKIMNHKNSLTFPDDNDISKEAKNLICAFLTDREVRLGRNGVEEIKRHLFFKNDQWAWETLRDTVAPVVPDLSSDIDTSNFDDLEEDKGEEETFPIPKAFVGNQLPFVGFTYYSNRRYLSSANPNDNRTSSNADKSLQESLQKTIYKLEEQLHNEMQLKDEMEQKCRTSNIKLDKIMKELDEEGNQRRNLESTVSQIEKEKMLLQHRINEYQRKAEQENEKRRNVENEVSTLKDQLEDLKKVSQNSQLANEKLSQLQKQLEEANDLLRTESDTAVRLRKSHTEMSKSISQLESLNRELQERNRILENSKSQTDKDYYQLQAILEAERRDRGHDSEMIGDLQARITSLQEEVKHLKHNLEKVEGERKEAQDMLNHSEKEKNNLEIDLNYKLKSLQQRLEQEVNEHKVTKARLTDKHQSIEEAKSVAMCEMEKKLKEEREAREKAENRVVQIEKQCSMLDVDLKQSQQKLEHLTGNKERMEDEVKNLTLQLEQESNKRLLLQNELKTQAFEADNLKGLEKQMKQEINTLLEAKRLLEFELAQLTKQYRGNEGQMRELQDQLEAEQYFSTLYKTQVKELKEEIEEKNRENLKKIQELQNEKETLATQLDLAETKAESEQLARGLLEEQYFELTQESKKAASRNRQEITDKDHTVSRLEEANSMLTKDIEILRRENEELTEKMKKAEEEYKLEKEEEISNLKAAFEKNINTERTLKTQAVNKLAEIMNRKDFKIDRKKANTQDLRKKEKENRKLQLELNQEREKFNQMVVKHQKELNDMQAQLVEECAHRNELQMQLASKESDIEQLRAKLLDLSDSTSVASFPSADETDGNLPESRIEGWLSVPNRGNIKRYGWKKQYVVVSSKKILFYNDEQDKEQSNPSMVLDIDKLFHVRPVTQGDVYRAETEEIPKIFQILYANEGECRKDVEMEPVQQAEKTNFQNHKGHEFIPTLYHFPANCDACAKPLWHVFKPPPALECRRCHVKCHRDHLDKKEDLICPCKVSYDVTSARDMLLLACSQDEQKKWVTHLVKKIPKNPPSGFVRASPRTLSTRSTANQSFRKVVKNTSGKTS

NEK10 = target: T2, NEK10 (Homo sapiens, UniProt Q6ZWH5)
T2 sequence (Q6ZWH5 1-1172): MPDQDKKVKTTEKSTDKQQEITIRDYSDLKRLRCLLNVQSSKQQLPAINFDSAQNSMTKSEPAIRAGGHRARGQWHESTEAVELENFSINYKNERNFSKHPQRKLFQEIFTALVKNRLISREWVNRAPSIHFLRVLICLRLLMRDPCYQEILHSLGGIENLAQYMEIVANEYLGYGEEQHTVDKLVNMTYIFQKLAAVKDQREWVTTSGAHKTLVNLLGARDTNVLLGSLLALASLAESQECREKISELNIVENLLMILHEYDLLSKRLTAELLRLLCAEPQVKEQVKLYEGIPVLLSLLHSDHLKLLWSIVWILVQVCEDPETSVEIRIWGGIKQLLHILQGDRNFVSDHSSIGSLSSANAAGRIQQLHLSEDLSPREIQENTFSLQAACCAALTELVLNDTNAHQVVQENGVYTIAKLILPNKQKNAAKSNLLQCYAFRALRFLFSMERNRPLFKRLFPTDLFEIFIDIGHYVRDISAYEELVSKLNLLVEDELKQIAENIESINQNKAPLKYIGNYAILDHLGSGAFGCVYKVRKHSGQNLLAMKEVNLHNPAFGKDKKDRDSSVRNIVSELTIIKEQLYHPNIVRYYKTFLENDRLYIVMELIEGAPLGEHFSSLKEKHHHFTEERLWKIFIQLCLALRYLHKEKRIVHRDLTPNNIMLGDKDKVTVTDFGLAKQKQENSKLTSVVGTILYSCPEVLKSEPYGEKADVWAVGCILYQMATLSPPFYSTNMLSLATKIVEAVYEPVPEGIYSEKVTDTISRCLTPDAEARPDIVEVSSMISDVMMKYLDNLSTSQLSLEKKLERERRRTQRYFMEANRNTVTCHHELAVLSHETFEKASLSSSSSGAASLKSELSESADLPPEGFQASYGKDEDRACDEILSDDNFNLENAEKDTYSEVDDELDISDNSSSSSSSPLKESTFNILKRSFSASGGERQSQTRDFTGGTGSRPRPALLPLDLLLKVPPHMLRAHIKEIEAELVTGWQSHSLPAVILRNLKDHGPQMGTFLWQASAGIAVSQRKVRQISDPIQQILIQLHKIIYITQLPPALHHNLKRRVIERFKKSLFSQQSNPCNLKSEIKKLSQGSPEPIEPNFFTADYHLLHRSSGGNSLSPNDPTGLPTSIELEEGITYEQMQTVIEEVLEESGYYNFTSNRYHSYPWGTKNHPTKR

CAMK1D = CAMK1D (Homo sapiens, UniProt Q8IU85)
Sequence of CAMK1D (Q8IU85 whole entry): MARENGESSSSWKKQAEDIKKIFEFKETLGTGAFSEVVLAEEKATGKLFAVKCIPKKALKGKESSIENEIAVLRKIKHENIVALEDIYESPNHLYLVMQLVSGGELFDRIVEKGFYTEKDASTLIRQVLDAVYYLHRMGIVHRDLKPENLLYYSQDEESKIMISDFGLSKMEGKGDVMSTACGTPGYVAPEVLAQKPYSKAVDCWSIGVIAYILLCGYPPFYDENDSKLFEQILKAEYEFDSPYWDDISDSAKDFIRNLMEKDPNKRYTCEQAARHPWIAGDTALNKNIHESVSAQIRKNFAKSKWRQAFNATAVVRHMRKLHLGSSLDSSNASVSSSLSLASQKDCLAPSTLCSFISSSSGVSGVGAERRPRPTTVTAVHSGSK

[1] = target: T3, ABL1(F317I)-nonphosphorylated (Homo sapiens, UniProt P00519, F317I)
T3 construct: nonphosphorylated
T3 sequence (P00519 whole entry F317I): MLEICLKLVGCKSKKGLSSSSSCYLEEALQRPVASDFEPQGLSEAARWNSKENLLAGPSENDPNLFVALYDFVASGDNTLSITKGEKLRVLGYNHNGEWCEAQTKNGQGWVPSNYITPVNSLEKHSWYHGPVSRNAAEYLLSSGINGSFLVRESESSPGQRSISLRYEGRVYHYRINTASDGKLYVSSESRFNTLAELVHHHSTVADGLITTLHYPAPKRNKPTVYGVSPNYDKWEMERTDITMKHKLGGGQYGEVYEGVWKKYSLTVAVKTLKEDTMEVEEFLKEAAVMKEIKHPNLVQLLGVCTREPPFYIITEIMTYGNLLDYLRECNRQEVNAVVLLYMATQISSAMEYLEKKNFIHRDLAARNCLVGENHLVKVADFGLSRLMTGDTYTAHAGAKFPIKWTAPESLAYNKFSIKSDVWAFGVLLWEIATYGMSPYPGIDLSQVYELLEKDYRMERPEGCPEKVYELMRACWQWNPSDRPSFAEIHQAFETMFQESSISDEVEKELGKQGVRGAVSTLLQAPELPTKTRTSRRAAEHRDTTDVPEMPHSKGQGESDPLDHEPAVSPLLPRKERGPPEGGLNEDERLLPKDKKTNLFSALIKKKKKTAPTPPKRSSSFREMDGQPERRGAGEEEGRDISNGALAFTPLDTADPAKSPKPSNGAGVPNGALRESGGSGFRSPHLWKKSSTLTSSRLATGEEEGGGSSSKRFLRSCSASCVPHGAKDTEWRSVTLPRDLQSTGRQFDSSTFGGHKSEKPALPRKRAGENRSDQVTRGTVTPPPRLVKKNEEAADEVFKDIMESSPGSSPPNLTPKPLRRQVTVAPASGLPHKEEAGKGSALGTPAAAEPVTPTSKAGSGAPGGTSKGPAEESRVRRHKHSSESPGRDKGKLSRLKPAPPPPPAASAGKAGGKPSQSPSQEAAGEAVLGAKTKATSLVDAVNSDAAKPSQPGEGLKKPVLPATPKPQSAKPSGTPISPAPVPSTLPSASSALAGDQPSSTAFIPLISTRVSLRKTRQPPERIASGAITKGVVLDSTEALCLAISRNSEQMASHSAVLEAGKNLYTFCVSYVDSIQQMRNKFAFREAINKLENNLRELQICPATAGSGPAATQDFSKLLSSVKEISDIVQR

[2] = read-out: Olaparib / %Ctrl @ 10000nM
[3] = read-out: Talazoparib (BMN 673) / %Ctrl @ 10000nM
[4] = read-out: Rucaparib / %Ctrl @ 10000nM, binding competition, % of control
[5] = read-out: Niraparib (MK-4827) / %Ctrl @ 10000nM

Sequence of MAST1 (Q9Y2H9 whole entry): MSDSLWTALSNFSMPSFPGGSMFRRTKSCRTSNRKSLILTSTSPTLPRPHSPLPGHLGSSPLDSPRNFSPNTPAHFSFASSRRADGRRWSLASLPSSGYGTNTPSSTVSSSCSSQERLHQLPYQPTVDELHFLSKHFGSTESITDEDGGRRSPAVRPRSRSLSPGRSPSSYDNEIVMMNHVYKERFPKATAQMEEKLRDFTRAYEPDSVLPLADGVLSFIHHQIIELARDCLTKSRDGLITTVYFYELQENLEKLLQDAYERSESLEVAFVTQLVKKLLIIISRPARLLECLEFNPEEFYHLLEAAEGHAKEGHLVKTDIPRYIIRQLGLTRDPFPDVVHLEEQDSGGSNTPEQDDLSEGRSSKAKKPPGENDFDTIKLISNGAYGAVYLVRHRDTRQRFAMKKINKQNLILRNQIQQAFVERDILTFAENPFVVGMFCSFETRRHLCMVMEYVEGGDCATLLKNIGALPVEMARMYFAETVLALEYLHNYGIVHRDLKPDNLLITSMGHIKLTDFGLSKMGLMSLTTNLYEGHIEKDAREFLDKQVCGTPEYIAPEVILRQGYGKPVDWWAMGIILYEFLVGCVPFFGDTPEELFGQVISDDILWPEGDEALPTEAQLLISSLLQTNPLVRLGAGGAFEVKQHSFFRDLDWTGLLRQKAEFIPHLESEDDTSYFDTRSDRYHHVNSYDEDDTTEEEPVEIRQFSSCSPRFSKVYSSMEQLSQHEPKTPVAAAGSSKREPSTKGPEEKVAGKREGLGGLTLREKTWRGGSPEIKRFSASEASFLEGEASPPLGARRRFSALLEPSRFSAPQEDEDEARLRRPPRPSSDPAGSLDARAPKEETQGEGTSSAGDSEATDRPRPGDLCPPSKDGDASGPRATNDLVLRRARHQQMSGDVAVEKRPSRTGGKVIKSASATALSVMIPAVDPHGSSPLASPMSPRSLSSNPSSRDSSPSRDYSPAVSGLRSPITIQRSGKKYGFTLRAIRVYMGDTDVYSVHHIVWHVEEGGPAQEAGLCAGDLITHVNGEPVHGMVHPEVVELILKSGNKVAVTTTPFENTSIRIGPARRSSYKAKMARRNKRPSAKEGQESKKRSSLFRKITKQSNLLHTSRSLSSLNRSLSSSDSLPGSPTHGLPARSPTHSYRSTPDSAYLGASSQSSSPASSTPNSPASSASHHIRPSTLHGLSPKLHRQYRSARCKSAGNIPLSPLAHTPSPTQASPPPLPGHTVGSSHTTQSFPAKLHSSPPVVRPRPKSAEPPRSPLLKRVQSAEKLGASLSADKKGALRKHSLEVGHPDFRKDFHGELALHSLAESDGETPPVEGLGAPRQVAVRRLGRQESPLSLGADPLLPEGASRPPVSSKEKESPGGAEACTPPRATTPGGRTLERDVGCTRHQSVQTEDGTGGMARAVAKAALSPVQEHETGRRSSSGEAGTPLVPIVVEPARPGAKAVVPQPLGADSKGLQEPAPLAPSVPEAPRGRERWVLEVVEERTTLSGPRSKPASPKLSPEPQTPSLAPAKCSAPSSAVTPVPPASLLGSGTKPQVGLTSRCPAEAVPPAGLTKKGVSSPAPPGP

percent of control binding at 10 µM (MAST1; [2]): 86% | percent of control binding at 10 µM (ALK(C1156Y); [2]): 88% | percent of control binding at 10 µM (TBK1; [2]): 91% | percent of control binding at 10 µM (CLK3; [2]): 89% | percent of control binding at 10 µM (TNK2; [2]): 95% | percent of control binding at 10 µM (ROCK1; [2]): 97% | percent of control binding at 10 µM (NEK10; [2]): 78% | percent of control binding at 10 µM (CAMK1D; [2]): 94% | percent of control binding at 10 µM [1, 2]: 66%
Structure (SMILES): O=C(c1cc(Cc2n[nH]c(=O)c3ccccc23)ccc1F)N1CCN(C(=O)C2CC2)CC1 [Olaparib]

percent of control binding at 10 µM (MAST1; [3]): 100% | percent of control binding at 10 µM (ALK(C1156Y); [3]): 100% | percent of control binding at 10 µM (TBK1; [3]): 44% | percent of control binding at 10 µM (CLK3; [3]): 17% | percent of control binding at 10 µM (TNK2; [3]): 97% | percent of control binding at 10 µM (ROCK1; [3]): 100% | percent of control binding at 10 µM (NEK10; [3]): 100% | percent of control binding at 10 µM (CAMK1D; [3]): 91% | percent of control binding at 10 µM [1, 3]: 96%
Structure (SMILES): Cn1ncnc1[C@H]1c2n[nH]c(=O)c3cc(F)cc(c23)N[C@@H]1c1ccc(F)cc1 [Talazoparib]

percent of control binding at 10 µM (MAST1; [4]): 79% | percent of control binding at 10 µM (ALK(C1156Y); [4]): 43% | percent of control binding at 10 µM (TBK1; [4]): 87% | percent of control binding at 10 µM (CLK3; [4]): 75% | percent of control binding at 10 µM (TNK2; [4]): 100% | percent of control binding at 10 µM (ROCK1; [4]): 85% | percent of control binding at 10 µM (NEK10; [4]): 14% | percent of control binding at 10 µM (CAMK1D; [4]): 86% | percent of control binding at 10 µM [1, 4]: 71%
Structure (SMILES): CNCc1ccc(-c2[nH]c3cc(F)cc4c3c2CCNC4=O)cc1 [Rucaparib]

Structure (SMILES): NC(=O)c1cccc2cn(-c3ccc([C@@H]4CCCNC4)cc3)nc12 [Niraparib]
percent of control binding at 10 µM (MAST1; [5]): 91% | percent of control binding at 10 µM (ALK(C1156Y); [5]): 88% | percent of control binding at 10 µM (TBK1; [5]): 75% | percent of control binding at 10 µM (CLK3; [5]): 100% | percent of control binding at 10 µM (TNK2; [5]): 91% | percent of control binding at 10 µM (ROCK1; [5]): 61% | percent of control binding at 10 µM (NEK10; [5]): 68% | percent of control binding at 10 µM (CAMK1D; [5]): 84% | percent of control binding at 10 µM [1, 5]: 86%

— paper PMC7026418, “The kinase polypharmacology landscape of clinical PARP inhibitors” (Scientific Reports, 2020)
